The results in this text go back to paper PMC9416111, “Synthesis and Biological Activity of Unsymmetrical Monoterpenylhetaryl Disulfides” (Molecules, 2022).

The structures appear in SMILES notation. ≈ marks a conversion by molar mass, not a printed value. A value given as a limit tells only on which side of the number the result lay.

Data set [1] deals with red blood cells from laboratory mice. The data set can be described thus: Erythrotoxicity (hemolytic activity). The note with it: 100 μM, 1, 3 and 5 h of incubation. The class given is cell-based. The procedure: No significant hemolytic activity was detected at a concentration of 1 μM (Figure 3B).
(§1) To evaluate the erythrotoxicity, antioxidant and membrane-protective activity of the compounds, we used 0.5% (v/v) suspension of red blood cells from laboratory mice in phosphate-buffered saline (PBS, pH 7.4). The test substances were previously dissolved in ethanol. Erythrotoxicity (hemolytic activity) was evaluated by the degree of hemolysis of red blood cells 1–5 h after the introduction of solutions of the compounds. Membrane-protective and antioxidant activity was determined by the degree of inhibition of H2O2-induced hemolysis. For this purpose, 30 min after the erythrocyte suspension was added to the solutions of the test compounds, hemolysis was initiated with a solution of hydrogen peroxide (0.006%). Then, the reaction mixture was incubated in a thermostatic shaker Biosan ES-20 with slow stirring at 37 °C for 5 h. An aliquot was taken from the incubation medium every hour, centrifuged for 5 min (1600× g), and the degree of hemolysis was determined by the hemoglobin content in the supernatant on a ThermoSpectromic Genesys 20 spectrophotometer (Thermo Fisher Scientific, Waltham, MA, USA) at 524 nm. The percentage of hemolysis was calculated in relation to the complete hemolysis of the sample. Each experiment was designed with 4–8 replicates. Statistical data processing and charting were performed using the Microsoft Office Excel 2007 software package (Microsoft, Redmond, WA, USA). The data represent the mean ± SE.
Figure 3 Hemolytic activity of unsymmetrical disulfides at the concentration of 100 μM (A) and 1 μM (B) after 1, 3 and 5 h of incubation.

Data set [2] relates to S. aureus ATCC 29213 (MSSA). The data set can be described thus: Antibacterial MIC, broth microdilution (EUCAST). The class given is cell-based, Staphylococcus aureus. The note with it: Staphylococcus aureus, 24 h, Mueller-Hinton broth. The procedure:
(§2) Minimum inhibitory concentrations (MICs) of compounds was determined by the broth microdilution assay in 96-well plates (Eppendorf, Hamburg, Germany) according to the EUCAST rules for antimicrobial susceptibility testing in full Mueller-Hinton broth (MH). The concentrations of compounds to be tested ranged from 1 to 2048 µg/mL. The MIC was determined as the lowest concentration of an antibiotic for which no visible bacterial growth could be observed after 24 h of incubation.
On the technique in general: In broth dilution the organism is exposed to a series of concentrations in liquid medium.

The subject of data set [3] is S. aureus MRSA clinical isolate. The experiment in a line: Antibacterial MIC, broth microdilution (EUCAST). The class given is cell-based, Staphylococcus aureus. Particulars: Staphylococcus aureus, MRSA; 24 h, Mueller-Hinton broth. On the procedure:
as §2

Data set [4] relates to influenza virus A/Puerto Rico/8/34 (H1N1). The experiment in a line: Antiviral cell protection assay in MDCK cells. The note with it: H1N1, MDCK, 72 h. The class given is cell-based.
A further data set can be described thus: in vitro. The note with it: dog.
The subject of data set [5] is Candida albicans 703 clinical isolate. The data set can be described thus: Antifungal MIC, broth microdilution (CLSI M27-A3). The note with it: for MIC: Candida albicans, 24 h, read-out: MIC C. albicans 703 Clinical Isolate.
Data set [6] can be described thus: Cytotoxicity, MTT on EBL cells. The note with it: bovine, EBL cells (embryonic bovine lung).
Experimental: (§3) Cytotoxicity of compounds was determined using the microtetrazolium test (MTT) on EBL cells. The cells were cultured in DMEM—Dulbecco’s Modified Eagle’s Medium (Sigma Aldrich, St. Louis, MO, USA) supplemented with 10% FBS, 2 mM L-glutamine, 100 µg/mL penicillin and 100 µg/mL streptomycin. Cells were seeded in 96-well plates with the density of 3000 cells per well and left overnight to allow for the attachment. Cells were next cultured at 37 °C and 5% CO2 in the presence of compounds of interest at various concentrations from 1.25 to 160 µg/mL. After 24 h of cultivation the cells were subjected to MTT-assay. The formazan was solubilized by DMSO and the optical density was measured on Tecan Infinite 200Pro at 570 nm. The concentration required to inhibit cellular dehydrogenase activity by 50% (CC50 value) was calculated by using GraphPad Prism 6.0 software (GraphPad software, San Diego, CA, USA).
The test system of a further data set is P. aeruginosa ATCC 27853. The experiment in a line: Antibacterial MIC, broth microdilution (EUCAST). The class given is cell-based, Pseudomonas aeruginosa. The note with it: Pseudomonas aeruginosa, ATCC27853; 24 h, Mueller-Hinton broth. The procedure:
as §2

For data set [7], the system named is S. typhimurium TA98, TA100 and TA102 strains. The experiment in a line: Mutagenicity in the Ames test (spot-test). The class given is cell-based, Salmonella typhimurium. The note with it: strain in which mutagenicity was found; NF = not found. The procedure:
The mutagenicity of compounds was evaluated in the Ames test with S. typhimurium TA98, TA100 and TA102 strains as described in [38]. The spot-test modification has been applied to avoid false-negative results driven with antibacterial activity of compounds. The tested compound was considered to be mutagenic if the number of revertant colonies increased more than 2 times close to the filter paper with compound.

The test system of data set [8] is red blood cells from laboratory mice. The experiment in a line: Membrane-protective activity: H2O2-induced hemolysis of erythrocytes. The class given is cell-based. The note with it: 1 μM, 1–5 h. The procedure:
The membrane-protective properties of the compounds were evaluated in the model of oxidative hemolysis of erythrocytes at a concentration of 1 μM in order to avoid the effect of hemolytic activity.
as §1
Figure 4 Effect of unsymmetrical disulfides and Trolox (T) at a concentration of 1 μM on the level of H2O2-induced hemolysis of erythrocytes after 1–5 h of incubation.

The nature of data set [9]: Antioxidant activity: inhibition of lipid peroxidation (TBA-RS) in brain homogenates. The note with it: 100 μM and 1 mM, 1 h after initiation of LPO (ascorbate/Fe2+). Set-up: species or system mice. The procedure: The antioxidant activity of monoterpenylhetaryl disulfides was evaluated for their in vitro ability to inhibit lipid peroxidation (LPO) processes in the brain lipids of laboratory mice. The brain was removed and homogenized (10%) in physiological saline (pH = 7.4) and centrifuged for 10 min. Then, an aliquot of the supernatant (S1) was taken, into which the test compounds were added as solutions in ethanol (final concentration of 100 μM and 1 mM). After 30 min, LPO was initiated by adding a freshly prepared solution of FeSO4 and ascorbic acid. Then, the test samples were incubated for one hour at 37 °C with slow stirring in a thermostatic Biosan ES-20 shaker (Biosan, Riga, Latvia). The concentration of LPO secondary products reacting with 2-thiobarbituric acid (thiobarbituric acid reactive substances, TBA-RS) was determined using ThermoSpectromic Genesys 20 spectrophotometer (Thermo Fisher Scientific, Waltham, MA, USA) at λ = 532 nm, the extinction coefficient 1.56 × 10^5 M^−1cm^−1 was used for calculations.
Figure 2 Effect of unsymmetrical disulfides and Trolox (T) at concentrations of 100 μM and 1 mM on the content of TBA-RS in the brain homogenate in an hour after the initiation of LPO (ascorbate/Fe^2+ initiators). C—control sample containing no test compounds; I—intact sample in which LPO was not initiated.

Data set [10] has as its system EBL cells (embryonic bovine lung). The experiment in a line: Cytotoxicity, MTT on EBL cells.
Experimental: as §3

In general, MIC refers to the least concentration at which growth counts as inhibited. The IC50 is the concentration that gives 50% inhibition. A high value points to a need for much substance. Regarding `CC(C)[C@@H]1CC[C@@H](C)C[C@@H]1SSc1nc2ccccc2s1` [Compound 1a, 2-(((1S,2S,5R)-2-isopropyl-5-methylcyclohexyl)disulfanyl)benzo[d]thiazole], the “hemolytic activity (erythrotoxicity), in words” value in [1] is “Low hemolytic activity”. The MIC in data set [2] turned out to be 16 µg/mL (≈ 47.4 µM); in [3] it was 16 µg/mL (≈ 47.4 µM); in data set [5] it was 512 µg/mL (≈ 1520 µM); in the data set on P. aeruginosa ATCC 27853, 16 µg/mL (≈ 47.4 µM). The molecule also gave an IC50 in [4] of 5 ± 1 µM. This molecule also had a CC50 in the data set “in vitro” of 36 ± 3 µM. The molecule also came in with a CC50 at 24 h in data set [6] of 11.7 µg/mL (≈ 34.7 µM). Besides, the “Mutagenicity in the Ames Test” value in data set [7] is reported as “TA 100”.

For the molecule `COC(=O)c1cccnc1SSC[C@@H]1[C@@H](O)C[C@H]2C[C@@H]1C2(C)C` [Compound 4c, Methyl 2-((((1S,2S,3S,5R)-3-hydroxy-6,6-dimethylbicyclo[3.1.1]heptan-2-yl)methyl)disulfanyl)pyridine-3-carboxylate], the “membrane-protective activity, in words” value in data set [8] is “most active”. Besides, the minimal inhibitory concentration (MIC) in data set [2] is 1020 µg/mL (≈ 2900 µM); in data set [3], more than 1020 µg/mL; in data set [5], 1020 µg/mL (≈ 2900 µM); against P. aeruginosa ATCC 27853, more than 1020 µg/mL. The molecule further had an IC50 in [4] of 34 ± 4 µM. In “in vitro”, the CC50 stood at 40 ± 2 µM. Also, the “antioxidant activity (inhibition of oxidation of brain lipids), in words” value in [9] is reported as “highest antioxidant activity”.

For `COC(=O)c1cccnc1SS[C@H]1C[C@H]2C[C@@H]([C@@H]1CO)C2(C)C` [Compound 3c, Methyl 2-(((1S,2R,3S,5R)-2-(hydroxymethyl)-6,6-dimethylbicyclo[3.1.1]hept-3-yl)disulfanyl)pyridine-3-carboxylate], the “membrane-protective activity, in words” value in data set [8] is recorded as “most active”. The MIC in [2] stood at 64 µg/mL (≈ 181 µM); in [3], 32 µg/mL (≈ 90.5 µM); in [5], 1020 µg/mL (≈ 2900 µM); against P. aeruginosa ATCC 27853, 1020 µg/mL (≈ 2900 µM). For the same molecule, the midpoint of inhibition in data set [4], the IC50, lay at 255 ± 31 µM. The CC50 in the data set “in vitro” was more than 283 µM. For the same molecule, the CC50 at 24 h in data set [6] turned out to be 8.1 µg/mL (≈ 22.9 µM). Further, in data set [9], the “antioxidant activity (inhibition of oxidation of brain lipids), in words” value is “highest antioxidant activity”.

The term melting point denotes the temperature, or range, at which the solid turns liquid. In turn, `CC1(C)[C@H]2C[C@H](SSc3ncccc3C(=O)O)[C@@H](CO)[C@@H]1C2` [Compound 3d, 2-(((1S,2R,3S,5R)-2-(hydroxymethyl)-6,6-dimethylbicyclo[3.1.1]heptan-3-yl)disulfanyl)nicotinic acid] returned a melting point of 99 °C. Moreover, in data set [1], the “hemolytic activity (erythrotoxicity), in words” value is “Low hemolytic activity”. This molecule had an MIC in [2] of 512 µg/mL (≈ 1510 µM). Moreover, in data set [3], 1020 µg/mL (≈ 3020 µM) was the least that counted as inhibitory (MIC). The molecule further registered an IC50 in data set [4] of 132 ± 16 µM. For the same molecule, the CC50 in “in vitro” turned out to be 285 ± 14 µM. In data set [5], the “antifungal activity against Candida albicans 703, in words” value was “active against yeast” and the MIC is 32 µg/mL (≈ 94.3 µM). Besides, in [10], the “cytotoxicity on EBL cells, in words” value is “least toxicity”. The molecule also displayed a CC50 at 24 h in data set [6] of 118 µg/mL (≈ 347 µM). The molecule further registered an MIC against P. aeruginosa ATCC 27853 of 1020 µg/mL (≈ 3020 µM).

As for `Cc1cc(C)nc(SS[C@H]2C[C@H](C)CC[C@H]2C(C)C)n1` [Compound 1b, 2-(((1S,2S,5R)-2-isopropyl-5-methylcyclohexyl)disulfanyl)-4,6-dimethylpyrimidine], the minimal inhibitory concentration (MIC) in data set [2] came to 16 µg/mL (≈ 51.5 µM); in data set [3], 32 µg/mL (≈ 103 µM); in [5], 512 µg/mL (≈ 1650 µM); with P. aeruginosa ATCC 27853 it was 32 µg/mL (≈ 103 µM). This molecule also gave an IC50 in data set [4] of 13 ± 2 µM. In “in vitro”, this molecule yielded a CC50 of 29 ± 2 µM. Besides, in data set [6], the CC50 at 24 h was determined as 14 µg/mL (≈ 45.1 µM). The “Mutagenicity in the Ames Test” value in data set [7] is recorded as “TA 102”.
